Test results from patent publication US12084521B2, “TLR9 inhibitors to suppress inflammatory response to pathogens” (University Of Maryland, Baltimore, priority 2018, dated 2024).
Entries after “also recorded” stand apart in the source; their conditions may differ. No end group written: not given here.

Tests used:
TLR9-induced lethality = test: Survival of D-Gal pretreated mice after ODN 1668; format: in vivo, C57Bl/6J mice; settings: ODN 1668 lower dose 3.93 nmol/mouse; peptide 200 nmol/mouse i.p.
Procedure: Systemic cytokine levels were measured in plasma samples obtained 1, 3, and 5 hours after intraperitoneal (i.p.) administration of 7.86 nmol (50 μg) of ODN 1668 or 67 nmol of Pam3C per mouse, using ELISA kits from Biolegend™ Inc. CPDP were dissolved in PBS and administered i.p. at the dose of 200 nmol per mouse 1 hour before administration of a TLR agonist. For survival experiments, mice were sensitized to TLR9 agonists by i.p. injection of 20 mg of D-Gal 30 minutes before administration of peptides or PBS. ODN 1668 was used at the doses of 3.93 or 7.86 nmol/mouse (25 or 50 μg/mouse) 1.5 hours after D-Gal. Animal survival was monitored for 50 hours. All agents were administered i.p. in 500 μL volume of PBS. Animals had free access to food and water during the observation period. All animal experiments were conducted in accordance with the national guidelines for the care and use of laboratory animals under a protocol that was approved by the UMB IACUC.
With the exception for LPS, administration of a purified TLR agonist is not lethal to mice. Mice, however, can be sensitized to TLR agonists by pretreatment with D-galactosamine (D-Gal). Survival of C57Bl/6J mice pretreated with D-galactosamine and challenged with different doses of ODN 1668 was tested. Mice were first administered with D-Gal intraperitoneally at the dose of 20 mg/mouse. Thirty minutes later mice were mock-treated with PBS or treated with a CPDP at the dose 200 nmol/mouse. ODN 1668 was administered 1 hour after peptide treatment at the dose of 3.93 or 7.86 nmol/mouse.

TLR9 signaling [1] = test: ODN 1668-induced cytokine secretion in BMDM supernatants (ELISA); format: cell-based, mouse; settings: 5 hour supernatants, ODN 1668 1 μM
Procedure: (§1) Mouse TNFα and IL-12-p40 concentrations were measured in supernatants using ELISA kits from Biolegend™, Inc.
BMDMs were incubated in the presence of a decoy peptide for 30 minutes prior to stimulation with ODN 1668 (1 μM). The statistical significance of changes in cytokine levels was determined by the one-way ANOVA test; *p<0.01.

[2] = Stability and solubility of peptide solutions
TLR9 signaling [3] = test: TNFα mRNA in BMDM at varying ODN 1668 concentration, comparison with INH-18; format: cell-based, mouse; settings: inhibitor 30 min before varying ODN 1668, 1 hour
Procedure: To investigate inhibition of TLR9 signaling by 9R34 further, the following work was conducted. Mouse BMDMs were treated with the effective dose of either INH-18 (an ODN-based, competitive inhibitor of TLR9, commercially available through Invivogen™) or 9R34, 30 minutes prior to stimulation with varying concentration of ODN 1668. TNFα mRNA expression was measured 1 hour after ODN 1668 challenge and normalized to the expression of HPRT.

TLR4 signaling = test: LPS-induced TNFα secretion in BMDM (ELISA); format: cell-based, mouse; settings: peptide 20 or 40 μM; E. coli LPS 0.1 μg/mL; 5 hour BMDM supernatants
Procedure: as §1
BMDM were treated with 20 or 40 μM of 9R34 for 30 minutes prior to stimulation with E. coli LPS (0.1 μg/mL). TNFαconcentration in supernatants was evaluated by ELISA 5 hours after cell stimulation. See results in FIG. 9. Data represent means±SEM of three independent experiments.

TLR9 signaling [4] = test: ODN 1668-induced cytokine mRNA expression in BMDM (quantitative real time PCR); format: cell-based, mouse
Procedure: (§2) The cDNA obtained was amplified with gene-specific primers for mouse HPRT, TNFα, IL-10, IL-12-p40, or IL-6 and Fast SYBR Green™ master mix (Applied Biosystemsm) as previously described.
Mouse BMDMs were incubated in the presence of a 10, 20 or 40 μM decoy peptide for 30 minutes prior to stimulation with ODN 1668 (1 μM). […] Data represent the means±SEM of at least three independent experiments. The statistical significance of changes in cytokine mRNA was determined by a one-way ANOVA test; *p<0.001. Peptides 9R3 and 9R34 have overlapping sequences (see Table 1).
To investigate inhibition of TLR9 signaling by 9R34 analogues, the following work was performed. Mouse BMDMs were incubated in the presence of a 10, 20 or 40 μM decoy peptide for 30 minutes prior to stimulation with ODN 1668 (1 μM). Cytokine mRNA expression was measured 1 hour after ODN 1668 challenge and normalized to the expression of HPRT. See also Table 1. Data represent means±SEM of at least three independent experiments.

TLR1/2 signaling = test: TNFα mRNA in BMDM stimulated with Pam3C; format: cell-based, mouse; settings: peptide 40 μM; P3C 0.33 μM; 1 h
Procedure: as §2
(§3) CPDPs 9R34 and 9R11 were examined for inhibition of TLR1/2, TLR4, and TLR7 signaling. BMDMs were stimulated with Pam3C, E. coli LPS, or R848 and TNFαmRNA was measured 1 hour after stimulation. Mouse BMDM were treated with 40 μM of the indicated peptides for 30 minutes prior to stimulation with ODN 1668 (1 μM), E. coli LPS (0.1 μg/mL), R848 (2.85 μM), or P3C (0.33 μM). R848 and P3C were used to specifically activate TLR7 and TLR2 signaling, respectively. TNFαmRNA expression was measured 1 h after ODN 1668 challenge and normalized to the expression of HPRT. See results in FIG. 8A, FIG. 8B, and FIG. 8C. […] The statistical significance of changes was determined by a one-way ANOVA test; *p<0.01.

TLR7 signaling = test: TNFα mRNA in BMDM stimulated with R848; format: cell-based, mouse; settings: peptide 40 μM; R848 2.85 μM; 1 h
Procedure: as §2, §3

myDDosome = settings: BMDM pretreated with CPDP; MyD88 IP, IRAK4 blot
Procedure: Four million BMDMs per well were plated in 6-well plates and treated with CPDP for 30 minutes prior to stimulation with ODN 1668 for 90 minutes. Cells were lysed in 600 p L of buffer containing 20 mM HEPES (pH 7.4), 150 mM NaCl, 10 mM NaF, 2 mM Na3VO4, 1 mM EDTA, 1 mM EGTA, 0.5% Triton X-100, 0.1 mM DTT, and protease inhibitor cocktail (Roche™). Cell extracts were incubated overnight with 1 μg of anti-mouse MyD88 antibody (AF3109) (R&D Systems™, followed by a 4-hour incubation with 20 μL protein G Sepharose beads (ThermoFisherm Scientific). The beads were then washed 3 times with 500 μL of lysis buffer and boiled in 60 μL of Laemmli sample buffer (Bio-Rad™). Cell extracts were electrophoresed on 10% acrylamide gel by SDS-PAGE and transferred to PVDF membrane (Bio-Rad™). Rabbit anti-MyD88 IgG was purchased from Cell Signaling™. Mouse anti-IRAK4 IgG was obtained from Abcam™. Alkaline phosphatase-conjugated secondary antibodies against mouse and rabbit IgG were purchased from Cell Signaling™. The stabilized substrate for alkaline phosphatase was from Promega™.
TLR stimulation causes formation of myDDosome, a signaling complex composed through interactions of IRAK and MyD88 death domains. To test if peptides inhibit myDDosome formation, MyD88 was immunoprecipitated from lysates of ODN-stimulated BMDM and the precipitates analyzed for IRAK4 presence. BMDM were lysed and lysates immunoprecipitated with anti-MyD88 Ab and immune complexes assessed with anti-IRAK4 Ab 3 hours after cell treatment with ODN 1668.

[5] = BMDM, peptide 10, 20 or 40 μM 30 min before ODN 1668 (1 μM), 1 hour, normalized to HPRT

In the case of “GRWALRLCLEERD (also: antennapedia vector attached) [Peptide 9R34]”, the “protection of D-Gal pretreated mice (survival)” value (TLR9-induced lethality) was “full protection”, the “secretion of IL-12-p40” value (TLR9 signaling [1]; peptide 20 μM) was “also effective” and the “production/secretion of TNFα” value (TLR9 signaling [1]; peptide 40 μM) was “decreased the production of TNFα”. For the same sequence, the “secretion of IL-12-p40” value (TLR9 signaling [1]; peptide 40 μM) was “reduced secretion”, the “stability of millimolar stock solutions” value [2] was “unstable” and the “stability of peptide solutions in the presence of high protein concentrations” value [2] was “also unstable”. For the same sequence, the “TNFα/HPRT mRNA expression ratio with increased concentrations of agonistic ODN” value (TLR9 signaling [3]) was “efficient inhibition in a wider range of agonist concentrations”, the “LPS-induced TNFα secretion” value (TLR4 signaling) was “did not reduce” and the “TNFα mRNA expression” value (TLR9 signaling [4]; BMDM, peptide 10, 20 or 40 μM 30 min before ODN 1668 (1 μM), 1 hour after stimulation, normalized to HPRT) was “significantly suppressed”. For the same sequence, the “IL-10 mRNA expression” value (TLR9 signaling [4]; [5]) was “significantly suppressed”, the “IL-12-p40 mRNA expression” value (TLR9 signaling [4]; [5]) was “significantly suppressed” and the “inhibition of TLR9 signaling (ODN 1668-induced cytokine mRNA, overall)” value (TLR9 signaling [4]; BMDM, peptide 10, 20 or 40 μM, ODN 1668 1 μM) was “most potent inhibitor; also recorded: inhibit TLR9 signaling; also recorded: inhibited TLR9 signaling more potently than 9R3”. The “expression of all tested cytokines at lower peptide concentrations” value (TLR9 signaling [4]; peptide 10 or 20 μM) was “inhibited expression of all tested cytokines”, the “signaling induced by TLR1/2 agonist (TNFα mRNA)” value (TLR1/2 signaling) was “did not inhibit” and the “signaling induced by TLR7 agonist (TNFα mRNA)” value (TLR7 signaling) was “did not inhibit”. The “ODN 1668-induced myDDosome formation” value (myDDosome) was “prevented ODN 1668-induced myDDosome formation”.
